Positions of bridges follow the written chain, without caps; N, C: chain ends. Residues, ends and D or L forms follow the SMILES beside them.
Biological target: T1, recombinant human Seprase (rhuSeprase) (Homo sapiens, UniProt Q12884)
T1 construct: named pCEP4-IgKappa-huSeprase-coCHO_26-760aa-H6 and used for the generation of recombinant soluble human Seprase (rhuSeprase); mouse Ig kappa-chain V-J2-C secretion signal (N, cleaved yes); made in house; host or cells: FreeStyle CHO-S cells (transient transfection; purified from supernatant by Ni-chelate and SEC)
T1 sequence (Q12884 26-760): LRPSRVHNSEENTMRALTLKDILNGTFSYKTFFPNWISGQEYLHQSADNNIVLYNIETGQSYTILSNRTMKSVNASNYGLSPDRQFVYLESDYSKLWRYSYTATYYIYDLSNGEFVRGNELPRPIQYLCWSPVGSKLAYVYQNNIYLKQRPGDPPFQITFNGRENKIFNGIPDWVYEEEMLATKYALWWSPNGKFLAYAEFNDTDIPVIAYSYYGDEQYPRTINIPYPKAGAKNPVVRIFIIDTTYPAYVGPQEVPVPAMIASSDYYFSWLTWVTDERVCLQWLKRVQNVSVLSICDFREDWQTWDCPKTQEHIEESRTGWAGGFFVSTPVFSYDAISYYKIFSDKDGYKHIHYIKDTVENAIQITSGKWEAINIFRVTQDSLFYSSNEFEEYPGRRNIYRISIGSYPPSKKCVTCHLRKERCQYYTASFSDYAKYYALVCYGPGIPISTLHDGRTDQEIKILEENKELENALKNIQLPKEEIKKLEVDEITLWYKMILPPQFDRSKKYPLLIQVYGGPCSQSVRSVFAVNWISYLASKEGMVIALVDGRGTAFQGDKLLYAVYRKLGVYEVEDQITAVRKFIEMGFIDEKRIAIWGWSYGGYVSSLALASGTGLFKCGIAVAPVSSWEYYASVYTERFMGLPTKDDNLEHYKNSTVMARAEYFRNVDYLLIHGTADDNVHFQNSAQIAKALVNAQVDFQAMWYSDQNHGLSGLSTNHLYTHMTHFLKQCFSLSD
Test: Surface plasmon resonance (Biacore T100) on immobilized rhuSeprase
Format: binding
Conditions: for kon: read-out: ka (1/Ms)

Compound: CC[C@H](C)[C@@H]1NC(=O)[C@@H]2CSSC[C@H](NC(=O)[C@H](C)NC(=O)CNC(=O)[C@H](CO)NC(=O)CN)C(=O)N3CCC[C@H]3C(=O)N[C@@H](Cc3ccc(O)cc3)C(=O)N[C@@H]([C@@H](C)O)C(=O)N[C@@H](CCCNC(=N)N)C(=O)N[C@@H](Cc3c[nH]c4ccccc34)C(=O)N[C@@H](C)C(=O)N[C@@H](C(C)C)C(=O)NCC(=O)N[C@@H](CCCNC(=N)N)C(=O)NCC(=O)N3CCC[C@H]3C(=O)N[C@@H](CC(=O)O)C(=O)N[C@H]3CSSC[C@H](NC1=O)C(=O)N[C@@H](CCCNC(=N)N)C(=O)NCC(=O)N[C@@H](CC(N)=O)C(=O)NCC(=O)N[C@@H](Cc1ccc(O)cc1)C(=O)N[C@H](C(=O)NCC(=O)O)CSSC[C@H](NC(=O)[C@H](CC(=O)O)NC(=O)[C@H](CO)NC(=O)[C@H](CC(=O)O)NC(=O)[C@H](CCCNC(=N)N)NC(=O)[C@H](CCCNC(=N)N)NC3=O)C(=O)N1CCC[C@H]1C(=O)NCC(=O)N[C@@H](CCCNC(=N)N)C(=O)N2 [FA8-D03] (H-GSGACPYTRWAVGRGPDCRRDSDCPGRCICRGNGYCG-OH; disulfide 5-28, 18-30, 24-36; N-terminus and C-terminus assumed)
- kd: 0.1381 s⁻¹
- kon: 939000 M⁻¹ s⁻¹

Compound: CC[C@H](C)[C@@H]1NC(=O)[C@@H]2CSSC[C@H](NC(=O)[C@H](C)NC(=O)CNC(=O)[C@H](CO)NC(=O)CN)C(=O)N3CCC[C@H]3C(=O)N[C@@H](Cc3ccc(O)cc3)C(=O)N[C@@H]([C@@H](C)O)C(=O)N[C@@H](CCCNC(=N)N)C(=O)N[C@@H](Cc3c[nH]c4ccccc34)C(=O)N[C@@H](CCC(N)=O)C(=O)N3CCC[C@H]3C(=O)NCC(=O)N[C@@H](CCCNC(=N)N)C(=O)NCC(=O)N3CCC[C@H]3C(=O)N[C@@H](CO)C(=O)N[C@H]3CSSC[C@H](NC1=O)C(=O)N[C@@H](CCCNC(=N)N)C(=O)NCC(=O)N[C@@H](CC(N)=O)C(=O)NCC(=O)N[C@@H](Cc1ccc(O)cc1)C(=O)N[C@H](C(=O)NCC(=O)O)CSSC[C@H](NC(=O)[C@H](CC(=O)O)NC(=O)[C@H](CO)NC(=O)[C@H](CC(=O)O)NC(=O)[C@H](CCCNC(=N)N)NC(=O)[C@H](CCCNC(=N)N)NC3=O)C(=O)N1CCC[C@H]1C(=O)NCC(=O)N[C@@H](CCCNC(=N)N)C(=O)N2 [FA8-D05] (H-GSGACPYTRWQPGRGPSCRRDSDCPGRCICRGNGYCG-OH; disulfide 5-28, 18-30, 24-36; N-terminus and C-terminus assumed)
- kd: 0.8121 s⁻¹
- kon: 4.21e+06 M⁻¹ s⁻¹

Compound: CC[C@H](C)[C@@H]1NC(=O)[C@@H]2CSSC[C@H](NC(=O)[C@H](C)NC(=O)CNC(=O)[C@H](CO)NC(=O)CN)C(=O)N3CCC[C@H]3C(=O)N[C@@H](Cc3ccc(O)cc3)C(=O)N[C@@H](CO)C(=O)N[C@@H](CCCNC(=N)N)C(=O)N[C@@H](Cc3c[nH]c4ccccc34)C(=O)N[C@@H](C)C(=O)N[C@@H](C(C)C)C(=O)NCC(=O)N[C@@H](CCCNC(=N)N)C(=O)NCC(=O)N3CCC[C@H]3C(=O)N[C@@H](CC(=O)O)C(=O)N[C@H]3CSSC[C@H](NC1=O)C(=O)N[C@@H](CCCNC(=N)N)C(=O)NCC(=O)N[C@@H](CC(N)=O)C(=O)NCC(=O)N[C@@H](Cc1ccc(O)cc1)C(=O)N[C@H](C(=O)NCC(=O)O)CSSC[C@H](NC(=O)[C@H](CC(=O)O)NC(=O)[C@H](CO)NC(=O)[C@H](CC(=O)O)NC(=O)[C@H](CCCNC(=N)N)NC(=O)[C@H](CCCNC(=N)N)NC3=O)C(=O)N1CCC[C@H]1C(=O)NCC(=O)N[C@@H](CCCNC(=N)N)C(=O)N2 [FA8-D06] (H-GSGACPYSRWAVGRGPDCRRDSDCPGRCICRGNGYCG-OH; disulfide 5-28, 18-30, 24-36; N-terminus and C-terminus assumed)
- kd: 0.05303 s⁻¹
- Kd (KD (M, steady state)): 0.113 µM
- kon: 346000 M⁻¹ s⁻¹

Compound: CC[C@H](C)[C@@H]1NC(=O)[C@@H]2CSSC[C@H](NC(=O)[C@H](C)NC(=O)CNC(=O)[C@H](CO)NC(=O)CN)C(=O)N3CCC[C@H]3C(=O)N[C@@H](Cc3ccc(O)cc3)C(=O)N[C@@H](CO)C(=O)N[C@@H](CC(N)=O)C(=O)N[C@@H](Cc3c[nH]c4ccccc34)C(=O)N[C@@H](C)C(=O)N[C@@H](C(C)C)C(=O)NCC(=O)N[C@@H](CCCNC(=N)N)C(=O)NCC(=O)N3CCC[C@H]3C(=O)N[C@@H](CO)C(=O)N[C@H]3CSSC[C@H](NC1=O)C(=O)N[C@@H](CCCNC(=N)N)C(=O)NCC(=O)N[C@@H](CC(N)=O)C(=O)NCC(=O)N[C@@H](Cc1ccc(O)cc1)C(=O)N[C@H](C(=O)NCC(=O)O)CSSC[C@H](NC(=O)[C@H](CC(=O)O)NC(=O)[C@H](CO)NC(=O)[C@H](CC(=O)O)NC(=O)[C@H](CCCNC(=N)N)NC(=O)[C@H](CCCNC(=N)N)NC3=O)C(=O)N1CCC[C@H]1C(=O)NCC(=O)N[C@@H](CCCNC(=N)N)C(=O)N2 [FA8-F04] (H-GSGACPYSNWAVGRGPSCRRDSDCPGRCICRGNGYCG-OH; disulfide 5-28, 18-30, 24-36; N-terminus and C-terminus assumed)
- kd: 0.2003 s⁻¹
- kon: 624000 M⁻¹ s⁻¹

Compound: CC[C@H](C)[C@@H]1NC(=O)[C@@H]2CSSC[C@H](NC(=O)[C@H](C)NC(=O)CNC(=O)[C@H](CO)NC(=O)CN)C(=O)N3CCC[C@H]3C(=O)N[C@@H](Cc3ccc(O)cc3)C(=O)N[C@@H]([C@@H](C)O)C(=O)N[C@@H](CC(N)=O)C(=O)N[C@@H](Cc3c[nH]c4ccccc34)C(=O)N[C@@H](Cc3c[nH]cn3)C(=O)N3CCC[C@H]3C(=O)NCC(=O)N[C@@H](CCCNC(=N)N)C(=O)NCC(=O)N3CCC[C@H]3C(=O)N[C@@H](C)C(=O)N[C@H]3CSSC[C@H](NC1=O)C(=O)N[C@@H](CCCNC(=N)N)C(=O)NCC(=O)N[C@@H](CC(N)=O)C(=O)NCC(=O)N[C@@H](Cc1ccc(O)cc1)C(=O)N[C@H](C(=O)NCC(=O)O)CSSC[C@H](NC(=O)[C@H](CC(=O)O)NC(=O)[C@H](CO)NC(=O)[C@H](CC(=O)O)NC(=O)[C@H](CCCNC(=N)N)NC(=O)[C@H](CCCNC(=N)N)NC3=O)C(=O)N1CCC[C@H]1C(=O)NCC(=O)N[C@@H](CCCNC(=N)N)C(=O)N2 [FA8-G12] (H-GSGACPYTNWHPGRGPACRRDSDCPGRCICRGNGYCG-OH; disulfide 5-28, 18-30, 24-36; N-terminus and C-terminus assumed)
- kd: 0.3171 s⁻¹
- kon: 651000 M⁻¹ s⁻¹

Compound: CC[C@H](C)[C@@H]1NC(=O)[C@@H]2CSSC[C@H](NC(=O)[C@H](C)NC(=O)CN)C(=O)N3CCC[C@H]3C(=O)N[C@@H](Cc3ccc(O)cc3)C(=O)N[C@@H](CO)C(=O)N[C@@H](CC(N)=O)C(=O)N[C@@H](Cc3c[nH]c4ccccc34)C(=O)N[C@@H]([C@@H](C)O)C(=O)N3CCC[C@H]3C(=O)NCC(=O)N[C@@H](CCCNC(=N)N)C(=O)NCC(=O)N3CCC[C@H]3C(=O)N[C@@H](CC(=O)O)C(=O)N[C@H]3CSSC[C@H](NC1=O)C(=O)N[C@@H](CCCNC(=N)N)C(=O)NCC(=O)N[C@@H](CC(N)=O)C(=O)NCC(=O)N[C@@H](Cc1ccc(O)cc1)C(=O)N[C@H](C(=O)NCC(=O)O)CSSC[C@H](NC(=O)[C@H](CC(=O)O)NC(=O)[C@H](CO)NC(=O)[C@H](CC(=O)O)NC(=O)[C@H](CCCNC(=N)N)NC(=O)[C@H](CCCNC(=N)N)NC3=O)C(=O)N1CCC[C@H]1C(=O)NCC(=O)N[C@@H](CCCNC(=N)N)C(=O)N2 [MC-FA-012] (H-GACPYSNWTPGRGPDCRRDSDCPGRCICRGNGYCG-OH; disulfide 3-26, 16-28, 22-34; N-terminus and C-terminus assumed)
- kon: 408000 M⁻¹ s⁻¹

Compound: CC[C@H](C)[C@@H]1NC(=O)[C@@H]2CSSC[C@H](NC(=O)[C@H](C)NC(=O)CNC(=O)[C@H](CO)NC(=O)CN)C(=O)N3CCC[C@H]3C(=O)N[C@@H](Cc3ccc(O)cc3)C(=O)N[C@@H](CO)C(=O)N[C@@H](CC(N)=O)C(=O)N[C@@H](Cc3c[nH]c4ccccc34)C(=O)N[C@@H]([C@@H](C)O)C(=O)N3CCC[C@H]3C(=O)NCC(=O)N[C@@H](CCCNC(=N)N)C(=O)NCC(=O)N3CCC[C@H]3C(=O)N[C@@H](CC(=O)O)C(=O)N[C@H]3CSSC[C@H](NC1=O)C(=O)N[C@@H](CC(C)C)C(=O)N[C@@H](CCC(=O)O)C(=O)N[C@@H](CC(N)=O)C(=O)NCC(=O)N[C@@H](Cc1ccccc1)C(=O)N[C@H](C(=O)NCC(=O)O)CSSC[C@H](NC(=O)[C@H](CC(=O)O)NC(=O)[C@H](CO)NC(=O)[C@H](CC(=O)O)NC(=O)[C@H](CO)NC(=O)[C@H](CO)NC3=O)C(=O)N1CCC[C@H]1C(=O)NCC(=O)N[C@@H](C)C(=O)N2 [MO-FA-012] (H-GSGACPYSNWTPGRGPDCSSDSDCPGACICLENGFCG-OH; disulfide 5-28, 18-30, 24-36; N-terminus and C-terminus assumed)
- kd: 0.5128 s⁻¹
- kon: 382000 M⁻¹ s⁻¹
